Patent US8129425B2, “Small organic molecule regulators of cell proliferation” (Curis, Inc., priority 2000, dated 2012)

Columns and labels:
[1] = test system: hedgehog-responsive Gli-Luc reporter-construct; assay: Gli-Luc hedgehog pathway reporter assay in [10T1/2(s12)] cells; format: cell-based, murine; conditions: Table 1
How it was run: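 10T1/2(s12) cells carrying a Gli-Luc reporter, switched to 0.5% FBS medium, then exposed to compound for 24 hr; luciferase read by luminescence. Screen A: 1-2 μM with Hh protein at 0.01 μg/ml (about EC30); Screen B: 5 μM without Hh. Activity expressed as percent of full Hh-induced signal.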

[2] = test system: diabetic neuropathy (nerve conduction, vasa nervorum, NGF); assay: Streptozotocin (STZ) diabetic rat model of diabetic neuropathy; format: in vivo
Protocol: Diabetes was induced in male Wistar rats (Charles River, UK or Harlan, San Diego, USA) with an intraperitoneal injection (55 mg/kg) of streptozotocin (STZ; Sigma) given after an overnight fast. The drug was freshly dissolved in sterile saline immediately before injection. Three days later, tail vein blood glucose was measured by a strip-operated reflectance photometer and any STZ-treated rats with blood glucose <15 mmol/l were removed from the study. Rats were group-housed with free access to food and water in a 12 h light/dark cycle. At the end of each study, blood samples were collected from all rats, plasma extracted and plasma glucose levels measured by spectophotometric assay using a commercial kit (Sigma, St. Louis, Mo.). […] Motor nerve conduction velocity (MNCV) was measured from latencies of the compound M waves of the electromyogram in the hindlimb, and sensory nerve conduction velocity (SNCV) was measured from H reflex latencies in the same system. […] Stimulation of the nerve was performed at the sciatic notch and Achilles tendon and evoked electromyograms were recorded from the interosseus muscles of the foot. […] NGF was measured in extracts from segments of sciatic nerve by ELISA as described by P. Fernyhough et al. Human recombinant nerve growth factor replaces deficient neurotrophic support in the diabetic rat. […]

ptc-lacZ skin punches = assay: Skin explants from ptc-lacZ pups (X-Gal stain); format: cell-based, mouse; conditions: agonist alone, cultured 6 days
Protocol: Skin from ptc-lacZ E17.5 pups was excised with a 2 mm skin punch. Those skin punches were then cultured for 6 days in control media, or media including either agonist B or D or Hh protein, or media including both an agonist and Hh protein. The explants were then stained with X-Gal stain.

- EC50 [1]: < 0.1 µM
SMILES: CNC1CCC(N(Cc2ccc(OC)c(-c3ccc(C#N)cc3)c2)C(=O)c2sc3ccccc3c2Cl)CC1 (stereo not shown) [D]
- blood flow to the damaged nerves (sciatic vasa nervorum) ([2]; laser Doppler perfusion imaging and BS-1 lectin fluorescent imaging): improved
- levels of nerve growth factor (NGF) in the sciatic nerve ([2]; rat STZ model): increased levels of nerve growth factor (NGF)
- X-Gal staining of skin explants (ptc-lacZ skin punches): Analogous results
